Source: patent US9254274B2, “Method of treating Tourette'S disorder with GABA-aminotransferase inactivators” (CATALYST PHARMACEUTICAL PARTNERS, priority 2012, dated 2016)
Entries after “also recorded” stand apart in the source; their conditions may differ.

How the values were obtained:
cortical astrocytes = experiment: [^3H]GABA uptake in cultured cortical astrocytes; format: cell-based, mouse
Experimental: Cortical astrocytes were cultured essentially as previously described (Hertz L, Juurlink B H J, Hertz E, Fosmark H and Schousboe A, Preparation of Primary Cultures of Mouse (Rat) Astrocytes, in A Dissection and Tissue Culture Manual of the Nervous System (Shahar A, de Vellis J, Vernadakis A and Haber B eds) pp 105-108, Alan R. Liss, Inc., New York, 1989). The neopallium was removed from new born NMRI mice (Taconic, Denmark) and passed through an 80 μm nylon sieve and cultured in modified Dulbecco's modified Eagle's medium with fetal calf serum. The calf serum was lowered from 20% to 10% over three weeks, and finally the astrocytes were allowed to differentiate using 0.25 mM dibutyryl cyclic AMP during the last week of growth.
(§1) Cortical neurons were cultured essentially as previously described by removing the neopallium of 15-day old NMRI embryos by dissection followed by mild trypsination (Hertz E, Yu A C H, Hertz L, Juurlink B H J and Schousboe A. Preparation of Primary Cultures of Mouse Cortical Neurons, in A Dissection and Tissue Culture Manual of the Nervous System (Shahar A, de Vellis J, Vernadakis A and Haber B eds) pp 183-186, Alan R. Liss, Inc., New York, 198). […] Radioactivity was measured using Microscint™ 20 scintillation fluid (PerkinElmer) and a Packard TopCount microplate scintillation counter.

GABAA receptor = experiment: [^3H]muscimol competition binding, rat brain synaptic membranes
Experimental: On the day of the assay, the membrane preparation was quickly thawed, suspended in 40 volumes of ice-cold 50 mM Tris-HCl buffer (pH 7.4) using an UltraTurrax homogenizer and centrifuged at 48,000 g for 10 min at 4° C. This washing step was repeated four times. The final pellet was resuspended in incubation buffer and the binding assay carried out as detailed below.

human ρ1 GABAC receptors = target: T1, human ρ1 GABAC receptors (Homo sapiens, UniProt P24046); experiment: Activity at recombinant GABAC receptors expressed in oocytes; format: cell-based; settings: 100 μM, hydrochloride salt
T1 construct: expressed in transfected cells; host or cells: Xenopus laevis oocytes

hGAT-2 = target: T2, hGAT-2 (Homo sapiens, UniProt Q9NSD5); experiment: [^3H]GABA uptake assay at human GABA transporters, tsA201 cells; format: cell-based; settings: mammalian cells recombinantly expressing hGAT-2
T2 construct: expressed in transfected cells; host or cells: tsA201 cells (transient, PolyFect)
T2 sequence (Q9NSD5 1-602): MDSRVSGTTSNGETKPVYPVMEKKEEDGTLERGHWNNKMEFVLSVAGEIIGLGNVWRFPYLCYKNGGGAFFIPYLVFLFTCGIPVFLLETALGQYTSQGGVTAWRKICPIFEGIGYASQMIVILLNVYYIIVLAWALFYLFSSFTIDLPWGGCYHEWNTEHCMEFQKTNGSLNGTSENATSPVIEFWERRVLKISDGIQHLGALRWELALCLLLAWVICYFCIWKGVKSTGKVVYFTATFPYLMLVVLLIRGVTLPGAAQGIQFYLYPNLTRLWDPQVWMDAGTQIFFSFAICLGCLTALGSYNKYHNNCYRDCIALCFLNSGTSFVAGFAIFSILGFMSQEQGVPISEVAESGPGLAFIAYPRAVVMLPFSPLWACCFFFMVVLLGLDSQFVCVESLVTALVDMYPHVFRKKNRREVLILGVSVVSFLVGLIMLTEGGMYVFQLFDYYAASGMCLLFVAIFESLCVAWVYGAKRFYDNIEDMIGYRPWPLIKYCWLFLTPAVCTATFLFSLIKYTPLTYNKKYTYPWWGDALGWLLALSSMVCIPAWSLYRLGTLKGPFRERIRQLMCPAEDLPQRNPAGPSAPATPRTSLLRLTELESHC
Experimental: (§2) tsA201 cells were cultured in GlutaMAX-I DMEM supplemented with 10% fetal bovine serum, penicillin (100 U/ml), and streptomycin (100 μg/ml) at 37° C. in a humidified atmosphere of 95% air and 5% CO2. […] Quantification was performed by using Microscint™ 20 scintillation fluid (Perkin Elmer) and a Packard TopCount microplate scintillation counter.

hGAT-1 = target: T3, hGAT-1 (Homo sapiens, UniProt P30531); experiment: as above; format: cell-based; settings: mammalian cells recombinantly expressing hGAT-1
T3 construct: expressed in transfected cells; host or cells: tsA201 cells (transient, PolyFect)
Experimental: as §2

hBGT-1 = target: T4, hBGT-1 (Homo sapiens, UniProt P48065); experiment: as above; format: cell-based; settings: mammalian cells recombinantly expressing hBGT-1
T4 construct: expressed in transfected cells; host or cells: tsA201 cells (transient, PolyFect)
T4 sequence (P48065 1-614): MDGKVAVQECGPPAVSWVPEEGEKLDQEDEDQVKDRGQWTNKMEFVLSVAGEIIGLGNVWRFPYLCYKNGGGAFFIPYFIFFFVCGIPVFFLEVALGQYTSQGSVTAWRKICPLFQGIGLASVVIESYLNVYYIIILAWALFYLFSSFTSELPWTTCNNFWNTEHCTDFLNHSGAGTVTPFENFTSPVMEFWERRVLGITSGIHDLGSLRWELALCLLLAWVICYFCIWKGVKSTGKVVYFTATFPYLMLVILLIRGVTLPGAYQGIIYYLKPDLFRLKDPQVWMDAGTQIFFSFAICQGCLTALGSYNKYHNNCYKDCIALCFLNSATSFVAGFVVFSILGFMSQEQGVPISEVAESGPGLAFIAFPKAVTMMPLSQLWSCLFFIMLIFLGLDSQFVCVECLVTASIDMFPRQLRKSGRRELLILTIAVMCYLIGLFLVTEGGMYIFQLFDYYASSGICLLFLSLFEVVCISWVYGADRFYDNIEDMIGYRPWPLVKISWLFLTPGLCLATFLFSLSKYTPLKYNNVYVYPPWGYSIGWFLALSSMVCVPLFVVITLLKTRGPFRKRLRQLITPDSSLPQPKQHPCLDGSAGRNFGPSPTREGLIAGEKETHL
Experimental: as §2

hGAT-3 = target: T5, hGAT-3 (Homo sapiens, UniProt P48066); experiment: as above; format: cell-based; settings: mammalian cells recombinantly expressing hGAT-3
T5 construct: expressed in transfected cells; host or cells: tsA201 cells (transient, PolyFect)
T5 sequence (P48066 1-632): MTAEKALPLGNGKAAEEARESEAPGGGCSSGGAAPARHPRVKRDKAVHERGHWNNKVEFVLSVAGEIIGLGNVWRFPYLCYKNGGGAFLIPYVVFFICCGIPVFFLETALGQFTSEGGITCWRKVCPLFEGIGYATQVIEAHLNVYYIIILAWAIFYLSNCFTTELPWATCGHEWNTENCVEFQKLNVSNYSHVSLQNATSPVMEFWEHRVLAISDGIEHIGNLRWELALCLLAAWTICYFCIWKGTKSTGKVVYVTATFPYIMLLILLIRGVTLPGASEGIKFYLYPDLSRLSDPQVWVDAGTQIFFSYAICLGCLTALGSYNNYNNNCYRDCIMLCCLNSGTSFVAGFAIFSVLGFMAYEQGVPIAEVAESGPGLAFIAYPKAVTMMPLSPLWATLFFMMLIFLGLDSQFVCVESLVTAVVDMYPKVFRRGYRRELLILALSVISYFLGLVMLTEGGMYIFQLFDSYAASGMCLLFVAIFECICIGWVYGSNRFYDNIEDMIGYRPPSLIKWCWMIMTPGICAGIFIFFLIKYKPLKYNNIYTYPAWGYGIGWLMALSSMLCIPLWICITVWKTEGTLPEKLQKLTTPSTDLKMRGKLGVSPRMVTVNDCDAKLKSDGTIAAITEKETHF
Experimental: as §2

cortical neurons = experiment: [^3H]GABA uptake in cultured cortical neurons; format: cell-based, mouse
Experimental: as §1, with “[…]). The neurons were cultured in 10% fetal calf serum and, after 48 h, cytosine arabinoside was added to a final concentration of 20 μM to prevent glial proliferation. […] The stable cell lines are under the selection pressure of blasticidin-S at 5 μg/mL.” for “198).”

GABAB receptor [1] = target: T6, GABAB receptor (Rattus norvegicus, UniProt Q9Z0U4); settings: 100 μM, rat brain cortical homogenate; hydrochloride salt
reuptake of GABA = experiment: GABA reuptake, general statement; format: cell-based
Experimental: as §2
as §1, with “[…]). The neurons were cultured in 10% fetal calf serum and, after 48 h, cytosine arabinoside was added to a final concentration of 20 μM to prevent glial proliferation. […] The stable cell lines are under the selection pressure of blasticidin-S at 5 μg/mL.” for “198).”

GABAB receptor [2] = target: T6, GABAB receptor; experiment: biochemical

T6 sequence (Q9Z0U4 17-960 limits assumed): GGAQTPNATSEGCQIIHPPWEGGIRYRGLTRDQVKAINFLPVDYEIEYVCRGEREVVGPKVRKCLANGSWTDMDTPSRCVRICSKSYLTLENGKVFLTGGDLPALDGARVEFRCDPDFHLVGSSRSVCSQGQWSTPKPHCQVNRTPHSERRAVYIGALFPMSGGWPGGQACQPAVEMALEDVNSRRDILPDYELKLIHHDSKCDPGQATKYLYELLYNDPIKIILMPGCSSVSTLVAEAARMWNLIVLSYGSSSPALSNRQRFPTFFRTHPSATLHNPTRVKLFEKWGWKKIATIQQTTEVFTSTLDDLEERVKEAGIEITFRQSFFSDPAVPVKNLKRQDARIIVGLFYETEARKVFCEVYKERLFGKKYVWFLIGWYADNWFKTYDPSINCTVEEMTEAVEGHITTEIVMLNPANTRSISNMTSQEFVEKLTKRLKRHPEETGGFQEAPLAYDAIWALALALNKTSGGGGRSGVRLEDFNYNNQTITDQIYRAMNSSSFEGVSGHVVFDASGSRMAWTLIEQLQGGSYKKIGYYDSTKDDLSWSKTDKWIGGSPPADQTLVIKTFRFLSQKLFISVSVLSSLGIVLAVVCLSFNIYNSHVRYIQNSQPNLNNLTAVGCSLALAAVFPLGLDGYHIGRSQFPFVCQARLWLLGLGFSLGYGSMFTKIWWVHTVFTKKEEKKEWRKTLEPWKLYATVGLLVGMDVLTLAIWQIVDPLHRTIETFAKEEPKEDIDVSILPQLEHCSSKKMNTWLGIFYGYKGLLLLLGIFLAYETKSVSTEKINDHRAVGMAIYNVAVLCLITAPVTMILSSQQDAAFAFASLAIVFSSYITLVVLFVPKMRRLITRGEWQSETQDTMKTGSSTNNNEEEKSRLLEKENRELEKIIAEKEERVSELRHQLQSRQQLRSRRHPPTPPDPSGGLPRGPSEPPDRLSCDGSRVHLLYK
T6 sequence (O88871 41-940 partner): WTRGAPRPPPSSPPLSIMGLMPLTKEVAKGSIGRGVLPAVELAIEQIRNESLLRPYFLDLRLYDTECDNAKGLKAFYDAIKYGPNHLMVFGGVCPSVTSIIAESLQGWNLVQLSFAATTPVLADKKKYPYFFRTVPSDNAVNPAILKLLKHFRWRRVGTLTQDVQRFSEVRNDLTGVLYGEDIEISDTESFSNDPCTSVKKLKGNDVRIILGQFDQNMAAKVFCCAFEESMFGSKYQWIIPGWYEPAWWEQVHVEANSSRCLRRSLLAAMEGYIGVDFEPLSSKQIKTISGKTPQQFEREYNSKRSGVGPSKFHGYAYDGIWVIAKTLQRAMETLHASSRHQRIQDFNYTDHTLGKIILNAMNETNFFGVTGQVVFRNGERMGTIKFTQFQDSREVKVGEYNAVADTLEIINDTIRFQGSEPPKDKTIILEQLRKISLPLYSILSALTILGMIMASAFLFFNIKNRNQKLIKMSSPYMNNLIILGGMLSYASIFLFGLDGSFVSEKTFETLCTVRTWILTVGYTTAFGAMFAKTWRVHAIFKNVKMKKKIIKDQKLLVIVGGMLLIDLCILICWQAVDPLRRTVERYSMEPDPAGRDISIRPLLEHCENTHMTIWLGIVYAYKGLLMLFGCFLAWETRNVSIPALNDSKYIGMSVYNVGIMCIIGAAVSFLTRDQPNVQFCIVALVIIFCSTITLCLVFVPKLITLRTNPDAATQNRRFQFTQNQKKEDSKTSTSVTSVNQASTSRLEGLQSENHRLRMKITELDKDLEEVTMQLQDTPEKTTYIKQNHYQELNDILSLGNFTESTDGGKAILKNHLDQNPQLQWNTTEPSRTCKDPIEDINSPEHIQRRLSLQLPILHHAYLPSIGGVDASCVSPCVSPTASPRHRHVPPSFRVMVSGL
T3 sequence (P30531 whole entry): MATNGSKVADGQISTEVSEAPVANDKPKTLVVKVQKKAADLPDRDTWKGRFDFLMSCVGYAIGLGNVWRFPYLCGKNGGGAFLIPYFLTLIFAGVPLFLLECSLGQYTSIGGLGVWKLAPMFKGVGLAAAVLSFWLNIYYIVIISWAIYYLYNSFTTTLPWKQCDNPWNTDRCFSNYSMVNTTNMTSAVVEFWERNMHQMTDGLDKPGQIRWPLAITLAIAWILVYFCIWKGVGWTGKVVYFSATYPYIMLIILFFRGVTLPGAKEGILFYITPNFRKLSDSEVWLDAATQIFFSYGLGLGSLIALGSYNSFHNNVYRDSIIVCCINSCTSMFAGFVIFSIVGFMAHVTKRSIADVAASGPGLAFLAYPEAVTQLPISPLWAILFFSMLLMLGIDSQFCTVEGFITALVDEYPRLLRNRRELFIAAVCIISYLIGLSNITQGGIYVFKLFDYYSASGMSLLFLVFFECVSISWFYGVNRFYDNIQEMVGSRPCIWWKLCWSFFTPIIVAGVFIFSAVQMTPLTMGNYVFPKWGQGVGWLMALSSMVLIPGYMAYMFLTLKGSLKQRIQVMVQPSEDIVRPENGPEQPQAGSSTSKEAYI
T1 sequence (P24046 22-479): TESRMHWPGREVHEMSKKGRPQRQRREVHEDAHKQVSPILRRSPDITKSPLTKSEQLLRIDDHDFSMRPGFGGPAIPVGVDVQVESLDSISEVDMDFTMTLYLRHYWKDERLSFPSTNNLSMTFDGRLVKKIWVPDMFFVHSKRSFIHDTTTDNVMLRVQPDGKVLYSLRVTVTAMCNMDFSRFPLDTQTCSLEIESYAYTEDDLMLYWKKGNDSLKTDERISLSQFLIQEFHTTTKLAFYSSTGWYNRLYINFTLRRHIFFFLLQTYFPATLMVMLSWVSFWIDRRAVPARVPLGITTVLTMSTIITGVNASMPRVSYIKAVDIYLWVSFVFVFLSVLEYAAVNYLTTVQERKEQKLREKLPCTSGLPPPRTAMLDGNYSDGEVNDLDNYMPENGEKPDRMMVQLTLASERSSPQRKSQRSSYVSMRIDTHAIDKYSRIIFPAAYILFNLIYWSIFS

SMILES | inhibition of [^3H]GABA uptake (cortical astrocytes) | inhibition of radioligand binding at GABAA receptors (GABAA receptor; 100 μM, rat brain cortical homogenate, hydrochloride salt) | agonist or antagonist effect at GABAC receptors (human ρ1 GABAC receptors) | inhibition of [^3H]GABA uptake (hGAT-2) | inhibition of [^3H]GABA uptake (hGAT-1) | inhibition of [^3H]GABA uptake (hBGT-1) | inhibition of [^3H]GABA uptake (hGAT-3) | inhibition of [^3H]GABA uptake (cortical neurons) | inhibition of radioligand binding at GABAB receptors (GABAB receptor [1]) | inhibition of the reuptake of GABA (reuptake of GABA) | IC50 (GABAA receptor; rat brain synaptic membranes) [µM] | IC50 (GABAB receptor [2]) [µM]
Cl.N[C@H]1C[C@@H](C(=O)O)CC1=C(F)F [(1S,3S)-3-amino-4-difluoromethylenyl-1-cyclopentanoic acid hydrochloride salt] | does not inhibit | no inhibition of binding was observed; also recorded: nor does it bind | no effect as an agonist or antagonist | does not inhibit | does not inhibit | does not inhibit | does not inhibit | does not inhibit | no inhibition of binding was observed | does not inhibit the reuptake of GABA | – | –
N[C@H]1C[C@@H](C(=O)O)CC1=C(F)F [(1S,3S)-3-amino-4-difluoromethylenyl-1-cyclopentanoic acid] | – | – | – | – | – | – | – | – | – | – | > 100 | > 100
